Key:
high-MAP3K8 PDX model [1] = assay: Efficacy study in patient-derived xenograft, high-MAP3K8 PDX model; assay type: in vivo, mouse; settings: for tumor growth inhibition (TGI): per os 5 times a week for 4 weeks, AZD6244 50 mg/kg, MEK162 25 mg/kg; for tumor growth: treated vs untreated
Experimental: (§1) Grafting experiments were performed by subcutaneous injection of 2.7×10^6 exponentially growing SKOV3 stable cell lines into each flank of 6-week-old female Swiss nude mice (at least five mice per group). Patient derived xenograft (PDX) models of EOC tumors were established at the Curie Institute with patient consent (Paris, France). For efficacy studies in PDX models, at least 8 mice per group were treated per os 5 times a week for 4 weeks either left untreated (Ctrl) or treated with the following MEK inhibitors AZD6244 at 50 mg/kg, (Selleckchem #S100817) or MEK162 25 mg/kg (Active Biochem #A-1128) both diluted into 2% DMSO, 10% 2-Hydroxypropyl-beta-cyclodextrin, 5% glucose in PBS. Tumor growth was evaluated by measuring two perpendicular diameters of tumors with a caliper twice a week. Individual tumor volumes were calculated as (V)=a×b2/2, with a being the major diameter, and b the minor one. For each tumor, V was reported to the initial volume as relative tumor volume (RTV). Means (and s.e.m) of RTV in the same treatment group were calculated, and growth curves were established as a function of time. The tumor growth inhibition (TGI) was calculated using the following formula: 100−100×([…]). Curie Institute ethical committee approved all experiments.

low-MAP3K8 PDX model = assay: Efficacy study in patient-derived xenograft, low-MAP3K8 PDX model; assay type: in vivo, mouse; settings: for tumor growth inhibition (TGI): per os 5 times a week for 4 weeks, AZD6244 50 mg/kg, MEK162 25 mg/kg; for tumor growth: treated vs untreated
Experimental: as §1

high-MAP3K8 PDX model [2] = assay: Lung metastasis detection in PDX by RT-qPCR for human Alu sequences; assay type: in vivo, mouse; settings: compared to low-MAP3K8 PDX model
SKOV3 cells [3] = assay: Growth kinetics of SKOV3 cells (living cells counted by trypan blue exclusion); assay type: cell-based, human
Experimental: (§2) The human epithelial ovarian cancer cell line SKOV3 and the SKOV3 stable cell lines were propagated in DMEM (Gibco) supplemented with 10% fetal bovine serum (FBS, PAA), penicillin and streptomycin (Gibco). 1 μg/mL puromycin was added only for SKOV3 stable cell lines. For SKOV3 stable cell lines, 10% serum stimulation was performed after overnight serum starvation for the indicated times. SKOV3 cells were plated and immediately treated or not with 5 μM MAP3K8 kinase inhibitor (KI, Calbiochem #616373) for the indicated times. The number of living cells was measured by trypan blue exclusion using Vi-Cell analyzer (Beckman Coulter). Cell cycle distributions were performed on ethanol-fixed cells, stained with propidium iodide and analyzed by flow cytometry. Flow cytometry data were acquired using CellQuest Pro (Becton Dickinson) software on the FACS LSRII machine (Becton Dickinson) and were analyzed using ModfitLT (Verity) software.

SKOV3 cells [4] = assay: Cell cycle analysis by flow cytometry (propidium iodide); assay type: cell-based, human; settings: KI treatment vs untreated control cells
Experimental: as §2

SKOV3 cells [5] = assay: Transwell migration assay; assay type: cell-based, human; settings: KI treatment, 5 h
Experimental: (§3) 12 wells cell culture insert, and 24 wells Transwell BioCoat™ growth factor reduced Matrigel™ invasion chambers (BD Biosciences, […]) were used for migration and invasion assays, respectively. After overnight serum starvation, cells were plated to the upper side of the Transwell device, at least in duplicates, in serum free medium, while the lower well contained regular 10% FBS culture medium in order to create an FBS gradient. The inventors plated 80,000 cells for migration assay and ended the experiment 5 h later. For invasion assay, the inventors plated 50,000 and stopped the experiment 24 h later. At the end of the experiment, the remaining cells in the upper side of the Transwell device were removed. Migrating and invading cells at the bottom side of the Transwell device were fixed and stained with crystal violet for 30 minutes and then counted in the central field (×2.5 objective, Zeiss Axioplan microscope, AxioCamERc 5s).

SKOV3 cells [6] = assay: Transwell BioCoat Matrigel invasion assay; assay type: cell-based, human; settings: KI treatment, 24 h
Experimental: as §3

MEK = assay: Western blot of serum-induced MEK phosphorylation in SKOV3 cells; assay type: cell-based, human; settings: SKOV3, KI 5 μM or 10 μM 1 h prior to 15 min 10% serum stimulation
Experimental: (§4) After overnight serum starvation (—FBS), SKOV3 cells and SKOV3 stable cell lines were stimulated with 10% serum for 15 minutes (+FBS). SKOV3 cell line was treated or not with 5 μM or 10 μM MAP3K8 kinase inhibitor as indicated (KI_5 μM or KI_10 μM) for 1 h prior to serum stimulation. After treatment, cells were washed once with cold PBS and scraped on ice with lysis buffer (50 mM Tris-HCl pH 7.5, 1 mM EDTA, 1 mM EGTA, 1% triton X-100, 1 mM Na3VO4, 50mMNaF, 0.27M sucrose, 0.1% β-mercaptoethanol) supplemented with EDTA-free protease inhibitor cocktail tablet (Roche #1836170). For immunoprecipitation (IP), 4×10^6 SKOV3 cells were plated into 10 cm petri dish. […] The protein concentration of the supernatant was determined using the Bio-Rad Dc Protein Assay Kit according to the manufacturer's instructions (Bio-Rad Laboratories). […]
(§5) For western blot analysis, samples were loaded onto homemade or precast 10% polyacrylamide gels (Invitrogen). […] Specific binding of antibodies was detected using appropriate peroxidase-conjugated secondary antibodies (Jackson ImmunoResearch Laboratories #115-035-003 and 115-035-045), and was visualized by enhanced chemiluminescence detection (Western Lightning® Plus-ECL, PerkinElmer). […]

ERK = assay: Western blot of serum-induced ERK phosphorylation in SKOV3 cells; assay type: cell-based, human; settings: SKOV3, KI 5 μM or 10 μM 1 h prior to 15 min 10% serum stimulation
Experimental: as §4, §5

p38MAPK = assay: Western blot of serum-induced p38MAPK phosphorylation in SKOV3 cells; assay type: cell-based, human; settings: SKOV3, KI 5 μM or 10 μM 1 h prior to 15 min 10% serum stimulation
Experimental: as §4, §5

NF-κB = assay: Western blot of serum-induced NF-κB phosphorylation in SKOV3 cells; assay type: cell-based, human; settings: SKOV3, KI 5 μM or 10 μM 1 h prior to 15 min 10% serum stimulation
Experimental: as §4, §5

JNK = assay: Western blot of JNK phosphorylation in SKOV3 cells; assay type: cell-based, human; settings: SKOV3, KI 5 μM or 10 μM 1 h prior to 15 min 10% serum stimulation; not significant
Experimental: as §4, §5

SMILES: Cn1cnc2c(F)c(Nc3ccc(Br)cc3Cl)c(C(=O)NOCCO)cc21 [AZD6244]
- tumor growth inhibition (TGI) (high-MAP3K8 PDX model [1]): ~60%
- tumor growth (high-MAP3K8 PDX model [1]): markedly reduced tumor growth
- tumor growth inhibition (TGI) (low-MAP3K8 PDX model): 22%
- tumor growth (low-MAP3K8 PDX model): much less impact
- lung metastatic incidence (high-MAP3K8 PDX model [2]): significantly reduced

SMILES: N#Cc1cnc2cnc(NCc3cccnc3)cc2c1Nc1ccc(F)c(Cl)c1 [KI]
- total number of cells (SKOV3 cells [3]; 5 μM KI vs untreated): reduced the total number of cells
- cell viability (SKOV3 cells [3]; KI treatment): without any impact on cell viability
- cell doubling time (SKOV3 cells [3]; KI treatment vs untreated): increase in cell doubling time
- percentage of cells in G1 phase (SKOV3 cells [4]): significant increase
- cell migration (SKOV3 cells [5]): significantly reduced cell migration
- cell invasion (SKOV3 cells [6]): inhibited
- serum-induced MEK phosphorylation (MEK): significantly reduced
- serum-induced ERK phosphorylation (ERK): significantly reduced
- serum-induced p38MAPK phosphorylation (p38MAPK): not affected
- serum-induced NF-κB phosphorylation (NF-κB): not affected
- JNK phosphorylation (JNK): slight decrease

SMILES: Cn1cnc2c(F)c(Nc3ccc(Br)cc3F)c(C(=O)NOCCO)cc21 [MEK162]
- tumor growth inhibition (TGI) (high-MAP3K8 PDX model [1]): ~60%
- tumor growth (high-MAP3K8 PDX model [1]): markedly reduced tumor growth
- tumor growth inhibition (TGI) (low-MAP3K8 PDX model): 22%
- tumor growth (low-MAP3K8 PDX model): much less impact
- lung metastatic incidence (high-MAP3K8 PDX model [2]): significantly reduced

— US20170242015A1, “MAP3K8 AS A MARKER FOR SELECTING A PATIENT AFFECTED WITH AN OVARIAN CANCER FOR A TREATMENT WITH A MEK INHIBITOR” (INSTITUT CURIE, priority 2014, published 2017)
